From article PMC5408257, “Bioactive Metabolites from the Deep Subseafloor Fungus Oidiodendron griseum UBOCC-A-114129” (Marine Drugs, 2017) come the findings set out here.

The assay has as its target T1, CDC2-like kinase-1 (CLK1) (Mus musculus, UniProt P22518).
T1 construct: Recombinant GST-CLK1
The experiment in a line: radiometric kinase assay with […] [gamma-33P] ATP, dose-response (n = […]). It is filed as biochemical.

T1 sequence (P22518 whole entry): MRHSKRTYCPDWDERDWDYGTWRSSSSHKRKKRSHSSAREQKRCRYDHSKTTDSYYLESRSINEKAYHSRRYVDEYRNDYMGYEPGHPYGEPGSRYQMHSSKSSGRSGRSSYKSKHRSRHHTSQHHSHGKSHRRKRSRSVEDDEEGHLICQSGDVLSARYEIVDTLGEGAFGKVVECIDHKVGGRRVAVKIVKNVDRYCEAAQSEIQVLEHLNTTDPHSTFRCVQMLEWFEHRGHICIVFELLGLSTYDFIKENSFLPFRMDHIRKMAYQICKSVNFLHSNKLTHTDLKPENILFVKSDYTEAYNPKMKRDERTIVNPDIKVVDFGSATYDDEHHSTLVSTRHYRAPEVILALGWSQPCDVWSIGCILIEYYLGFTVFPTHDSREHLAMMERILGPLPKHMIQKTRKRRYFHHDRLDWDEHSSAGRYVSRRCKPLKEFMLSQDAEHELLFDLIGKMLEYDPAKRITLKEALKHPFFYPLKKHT

In turn, `CC(C)=CCc1c(O)c(O)c(O)c2c1CC(=O)OC2C` (stereo not shown) [compound 3, dihydrosecofuscin] had an IC50 of 56.1 µM.
